Measurements taken from PubChem BioAssay AID180 (DTP/NCI, 2004).
Several values for one entry are separate records, joined by “and”; a condition that tells them apart may be missing. Equal entries are not always repeated.

Test system: BDF1 mice, Adenocarcinoma 755 s.c., tumor weight T/C
Experiment: NCI In Vivo Anticancer Drug Screen. Data for tumor model Adenocarcinoma 755 (subcutaneous) in B6D2F1 (BDF1) mice
Conditions: endpoint: mean tumor weight, higher = larger tumour
In short: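 Tumor-bearing mice receive test compound while controls get vehicle alone. Antitumor effect is scored from survival or tumor dimensions as a T/C quotient.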

[1] = dose: 15.0 mg/kg/injection, schedule: Q01DX011 (ip), vehicle: methylcellulose (MC)
[2] = dose: 50.0 mg/kg/injection, schedule: Q01DX011 (ip), vehicle: methylcellulose (MC)
[3] = dose: 30.0 mg/kg/injection, schedule: Q01DX011 (ip), vehicle: carboxymethylcellulose (CMC)
[4] = dose: 60.0 mg/kg/injection, schedule: Q01DX011 (ip), vehicle: carboxymethylcellulose (CMC)
[5] = dose: 120.0 mg/kg/injection, schedule: Q01DX011 (ip), vehicle: carboxymethylcellulose (CMC)
[6] = dose: 240.0 mg/kg/injection, schedule: Q01DX011 (ip), vehicle: carboxymethylcellulose (CMC)
[7] = dose: 25.0 mg/kg/injection, schedule: Q01DX011 (ip), vehicle: methylcellulose (MC)
[8] = dose: 31.0 mg/kg/injection, schedule: Q01DX011 (ip), vehicle: methylcellulose (MC)
[9] = dose: 62.0 mg/kg/injection, schedule: Q01DX011 (ip), vehicle: methylcellulose (MC)
[10] = dose: 125.0 mg/kg/injection, schedule: Q01DX011 (ip), vehicle: methylcellulose (MC)
[11] = dose: 250.0 mg/kg/injection, schedule: Q01DX011 (ip), vehicle: methylcellulose (MC)
[12] = dose: 75.0 mg/kg/injection, schedule: Q01DX011 (ip), vehicle: methylcellulose (MC)
[13] = dose: 225.0 mg/kg/injection, schedule: Q01DX011 (ip), vehicle: methylcellulose (MC)
[14] = dose: 50.0 mg/kg/injection, schedule: Q01DX011 (ip), vehicle: carboxymethylcellulose (CMC)

## COC(=O)[C@@H]1c2cc3c(c(O)c2[C@@H](OC2OC(C)C(OC)C(C)(OC)C2OC)C[C@]1(C)O)C(=O)c1c(O)cc2c(c1C3=O)O[C@H]1O[C@]2(C)[C@H](O)[C@@H](N(C)C)[C@@H]1O (some centres undefined)
dose: 0.2 mg/kg/injection, schedule: Q01DX011 (ip), vehicle: carboxymethylcellulose (CMC)
  T/C: 83 % of control
dose: 0.3 mg/kg/injection, schedule: Q01DX011 (ip), vehicle: carboxymethylcellulose (CMC)
  T/C: 89 % of control
dose: 0.3 mg/kg/injection, schedule: Q01DX011 (ip), vehicle: saline
  T/C: 179 % of control
dose: 0.44 mg/kg/injection, schedule: Q01DX011 (ip), vehicle: carboxymethylcellulose (CMC)
  T/C: 57 % of control
dose: 0.44 mg/kg/injection, schedule: Q01DX011 (ip), vehicle: saline
  T/C: 113 % of control
dose: 0.67 mg/kg/injection, schedule: Q01DX011 (ip), vehicle: carboxymethylcellulose (CMC)
  T/C: 99 % of control
dose: 1.0 mg/kg/injection, schedule: Q01DX011 (ip), vehicle: carboxymethylcellulose (CMC)
  T/C: 103 % of control

## O=c1[nH]cnc2n[nH]nc12
dose: 125.0 mg/kg/injection, schedule: Q01DX011 (oral), vehicle: methylcellulose (MC)
  T/C: 55 % of control
dose: 250.0 mg/kg/injection, schedule: Q02DX006 (ip), vehicle: methylcellulose (MC)
  T/C: 5 % of control
dose: 250.0 mg/kg/injection, schedule: Q03DX004 (ip), vehicle: methylcellulose (MC)
  T/C: 21 % of control

## CC(=O)Nc1nc(SCc2ccccc2)c2ncn(C3CCCO3)c2n1 (centres undefined)
dose: 6.2 mg/kg/injection, schedule: Q01DX011 (ip), vehicle: methylcellulose (MC)
  T/C: 54 % of control
[1]
  T/C: 6 % of control
[2]
  T/C: 4 % of control

## Nc1nc(I)c2ncn(C3OC(CO)C(O)C3O)c2n1 (centres undefined)
dose: 30.0 mg/kg/injection, schedule: Q01DX011 (ip), vehicle: saline
  T/C: 113 % of control
dose: 60.0 mg/kg/injection, schedule: Q01DX011 (ip), vehicle: saline
  T/C: 121 % of control
dose: 120.0 mg/kg/injection, schedule: Q01DX011 (ip), vehicle: saline
  T/C: 82 % of control
dose: 240.0 mg/kg/injection, schedule: Q01DX011 (ip), vehicle: saline
  T/C: 62 % of control
dose: 400.0 mg/kg/injection, schedule: Q01DX011 (ip), vehicle: saline
  T/C: 9 % of control
dose: 600.0 mg/kg/injection, schedule: Q01DX011 (ip), vehicle: saline
  T/C: 47 % of control

## CC12CCC(=O)C=C1CCC1C2C(O)CC2(C)C(O)CCC12 (centres undefined)
dose: 25.0 mg/kg/injection, schedule: Q01DX011 (sc), vehicle: steriod suspending solution
  T/C: 73 % of control
dose: 100.0 mg/kg/injection, schedule: Q01DX011 (sc), vehicle: steriod suspending solution
  T/C: 97 % of control
dose: 300.0 mg/kg/injection, schedule: Q01DX011 (sc), vehicle: steriod suspending solution
  T/C: 84 % of control

## Cn1c(=O)c2c(nc(N(CCO)CCO)n2C)n(C)c1=O
dose: 480.0 mg/kg/injection, schedule: Q01DX011 (ip), vehicle: saline
  T/C: 112 % of control

## Cn1c(=O)c2[nH]c(N/N=C/c3ccccc3C(=O)O)nc2n(C)c1=O
[3]
  T/C: 103 % of control
[4]
  T/C: 92 % of control
[5]
  T/C: 88 % of control
[6]
  T/C: 95 % of control

## Cc1ccc(CSc2nc(N)nc3c2ncn3C2OC(CO)C(O)C2O)cc1 (centres undefined)
dose: 12.5 mg/kg/injection, schedule: Q01DX011 (ip), vehicle: methylcellulose (MC)
  T/C: 57 % of control
[7]
  T/C: 60 % of control
[2]
  T/C: 25 % of control and 41 % of control

## O=C(Nc1ccc(N=Nc2ccc(O)c(C(=O)O)c2)c(S(=O)(=O)O)c1)c1ccc(C(=O)Nc2ccc(N=Nc3ccc(O)c(C(=O)O)c3)c(S(=O)(=O)O)c2)cc1
[3]
  T/C: 82 % of control
[4]
  T/C: 64 % of control
[5]
  T/C: 70 % of control
[6]
  T/C: 42 % of control

## CC(CN1CCN(C)CC1)CN1c2ccccc2Sc2ccc(C(F)(F)F)cc21 (centres undefined)
dose: 17.5 mg/kg/injection, schedule: Q01DX011 (ip), vehicle: methylcellulose (MC)
  T/C: 64 % of control
dose: 35.0 mg/kg/injection, schedule: Q01DX011 (ip), vehicle: methylcellulose (MC)
  T/C: 52 % of control
dose: 70.0 mg/kg/injection, schedule: Q01DX011 (ip), vehicle: methylcellulose (MC)
  T/C: 58 % of control

## Nc1nc(=S)c2[nH]cnc2[nH]1.[Cu+2]
dose: 0.62 mg/kg/injection, schedule: Q01DX011 (ip), vehicle: carboxymethylcellulose (CMC)
  T/C: 98 % of control
dose: 1.25 mg/kg/injection, schedule: Q01DX011 (ip), vehicle: carboxymethylcellulose (CMC)
  T/C: 83 % of control
dose: 2.5 mg/kg/injection, schedule: Q01DX011 (ip), vehicle: carboxymethylcellulose (CMC)
  T/C: 105 % of control
dose: 5.0 mg/kg/injection, schedule: Q01DX011 (ip), vehicle: carboxymethylcellulose (CMC)
  T/C: 59 % of control

## Cc1cnc(SCc2ccc(Cl)cc2)nc1Nc1ccc(Cl)cc1Cl
[8]
  T/C: 97 % of control
[9]
  T/C: 69 % of control
[10]
  T/C: 65 % of control
[11]
  T/C: 65 % of control

## NC(N)=Nc1nc2ccccc2o1
dose: 55.0 mg/kg/injection, schedule: Q01DX011 (ip), vehicle: methylcellulose (MC)
  T/C: 109 % of control
dose: 110.0 mg/kg/injection, schedule: Q01DX011 (ip), vehicle: methylcellulose (MC)
  T/C: 99 % of control
dose: 220.0 mg/kg/injection, schedule: Q01DX011 (ip), vehicle: methylcellulose (MC)
  T/C: 94 % of control
dose: 330.0 mg/kg/injection, schedule: Q01DX011 (ip), vehicle: methylcellulose (MC)
  T/C: 66 % of control
dose: 440.0 mg/kg/injection, schedule: Q01DX011 (ip), vehicle: methylcellulose (MC)
  T/C: 78 % of control

## CN1CC(=O)NC1=O
dose: 250.0 mg/kg/injection, schedule: Q01DX011 (ip), vehicle: saline
  T/C: 105 % of control
dose: 500.0 mg/kg/injection, schedule: Q01DX011 (ip), vehicle: saline
  T/C: 93 % of control
dose: 1000.0 mg/kg/injection, schedule: Q01DX011 (ip), vehicle: saline
  T/C: 81 % of control

## O=c1[nH]cnc2c1ncn2CCCl
[7]
  T/C: 195 % of control
[12]
  T/C: 150 % of control
[13]
  T/C: 120 % of control

## CCOC1CCCC(n2cnc3c(=S)nc[nH]c32)O1 (centres undefined)
dose: 4.69 mg/kg/injection, schedule: Q01DX011 (ip), vehicle: methylcellulose (MC)
  T/C: 29 % of control
dose: 9.38 mg/kg/injection, schedule: Q01DX011 (ip), vehicle: methylcellulose (MC)
  T/C: 2 % of control

## CS(=O)(=O)OCCC(=O)N1CCC(CCC2CCN(C(=O)CCOS(C)(=O)=O)CC2)CC1
[7]
  T/C: 79 % of control
[12]
  T/C: 63 % of control
[13]
  T/C: 81 % of control

## CCCCN(C)N=Nc1ccc(OCC(=O)NN)cc1
[14]
  T/C: 75 % of control

## Cc1cc2c(cc1C)NC(C)CC(=O)N2 (centres undefined)
[14]
  T/C: 89 % of control
dose: 50.0 mg/kg/injection, schedule: Q01DX011 (ip), vehicle: other
  T/C: 80 % of control
dose: 100.0 mg/kg/injection, schedule: Q01DX011 (ip), vehicle: other
  T/C: 48 % of control
dose: 200.0 mg/kg/injection, schedule: Q01DX011 (ip), vehicle: carboxymethylcellulose (CMC)
  T/C: 84 % of control

## Nc1nc(Cl)cc(Nc2cccc(Cl)c2)n1
[1]
  T/C: 99 % of control
[8]
  T/C: 104 % of control
[9]
  T/C: 103 % of control
[10]
  T/C: 94 % of control
[11]
  T/C: 68 % of control

## CCOC(=O)C(C)(C)Br
[2]
  T/C: 85 % of control
dose: 100.0 mg/kg/injection, schedule: Q01DX011 (ip), vehicle: methylcellulose (MC)
  T/C: 107 % of control
dose: 200.0 mg/kg/injection, schedule: Q01DX011 (ip), vehicle: methylcellulose (MC)
  T/C: 47 % of control
dose: 400.0 mg/kg/injection, schedule: Q01DX011 (ip), vehicle: methylcellulose (MC)
  T/C: 18 % of control
dose: 500.0 mg/kg/injection, schedule: Q01DX011 (ip), vehicle: methylcellulose (MC)
  T/C: 13 % of control

## O=C(OCC1OC(n2cnc3c(=S)nc[nH]c32)C(OC(=O)c2ccccc2)C1OC(=O)c1ccccc1)c1ccccc1 (centres undefined)
dose: 8.0 mg/kg/injection, schedule: Q01DX011 (ip), vehicle: carboxymethylcellulose (CMC)
  T/C: 98 % of control
dose: 15.0 mg/kg/injection, schedule: Q01DX011 (ip), vehicle: carboxymethylcellulose (CMC)
  T/C: 91 % of control
dose: 31.0 mg/kg/injection, schedule: Q01DX011 (ip), vehicle: carboxymethylcellulose (CMC)
  T/C: 99 % of control
dose: 32.0 mg/kg/injection, schedule: Q01DX011 (ip), vehicle: carboxymethylcellulose (CMC)
  T/C: 53 % of control
[14]
  T/C: 53 % of control
dose: 100.0 mg/kg/injection, schedule: Q01DX011 (ip), vehicle: carboxymethylcellulose (CMC)
  T/C: 7 % of control
dose: 125.0 mg/kg/injection, schedule: Q01DX011 (ip), vehicle: carboxymethylcellulose (CMC)
  T/C: 2 % of control and 6 % of control and 12 % of control
dose: 250.0 mg/kg/injection, schedule: Q01DX011 (ip), vehicle: carboxymethylcellulose (CMC)
  T/C: 1 % of control
